Test results reported in PubChem BioAssay (NCI).
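Dose response: 5 concentrations. Exposure: 48 h. Format: 96-well plates. Endpoint: linear interpolation; highest concentration if not reached. TGI: concentration producing complete growth inhibition.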

Legend:
Assay in all cases: inhibition of tumour cell growth, NCI panel, 48 h
COLO 205 colon = test system: COLO 205 colon
SR leukemia = test system: SR leukemia
SNB-75 CNS = test system: SNB-75 CNS
OVCAR-5 ovarian = test system: OVCAR-5 ovarian
UO-31 renal = test system: UO-31 renal
UACC-257 melanoma = test system: UACC-257 melanoma
OVCAR-8 ovarian = test system: OVCAR-8 ovarian
OVCAR-3 ovarian = test system: OVCAR-3 ovarian
ACHN renal = test system: ACHN renal
HCC-2998 colon = test system: HCC-2998 colon

Row | Structure (SMILES) | TGI (COLO 205 colon) | TGI (SR leukemia) | TGI (SNB-75 CNS) | TGI (OVCAR-5 ovarian) | TGI (UO-31 renal) | TGI (UACC-257 melanoma) | TGI (OVCAR-8 ovarian) | TGI (OVCAR-3 ovarian) | TGI (ACHN renal) | TGI (HCC-2998 colon)
1 | CC(=O)c1c(C(F)(F)F)n([O-])c2cc(Cl)c(Cl)cc2[n+]1=O | 2.11 µM | 0.0361 µM | 2.25 µM | 3.29 µM | 1.59 µM | 2.11 µM | 1.84 µM | 3.19 µM | 1.92 µM | –
2 | CCOc1cc(C2CC(c3ccc(NS(=O)(=O)c4cc([N+](=O)[O-])ccc4C)cc3)=NN2c2ccc([N+](=O)[O-])cc2[N+](=O)[O-])ccc1O (stereo not given) | 52.4 µM | > 100 µM | 35.3 µM | 60.3 µM | 39.8 µM | 59.5 µM | 49 µM | 29 µM | 21.7 µM | –
3 | COc1ccc(/C=C2\S/C(=N/Nc3nc(-c4ccccc4)cs3)NC2=O)cc1OC | > 100 µM | – | 64.4 µM | > 100 µM | 51.7 µM | > 100 µM | 47.5 µM | 55.8 µM | > 100 µM | 64.2 µM
4 | CC1(C)CC(=O)c2c(nc3ccc4ccccc4c3c2-c2ccc(NC(=O)CCCCCCCCC(=O)Nc3ccc(-c4c5c(nc6ccc7ccccc7c46)CC(C)(C)CC5=O)cc3)cc2)C1 | > 100 µM | > 100 µM | – | > 100 µM | > 100 µM | > 100 µM | > 100 µM | > 100 µM | > 100 µM | –
5 | CCN(CC)c1ccc2cc(C(=O)Nc3cccc4ccccc34)c(=N)oc2c1 | > 100 µM | > 100 µM | > 100 µM | > 100 µM | > 100 µM | > 100 µM | > 100 µM | – | > 100 µM | > 100 µM
6 | COc1ccc(-c2cc(-c3cc4cc(Br)ccc4nc3Cl)c(C#N)c(N)n2)cc1 | > 12.5 µM | > 12.5 µM | > 12.5 µM | > 12.5 µM | > 12.5 µM | – | > 12.5 µM | > 12.5 µM | – | –
7 | CN1CCN(CCCBr)CC1 | > 100 µM | – | > 100 µM | > 100 µM | > 100 µM | > 100 µM | > 100 µM | > 100 µM | > 100 µM | –
8 | CCOC(=O)c1cc2c(C(=O)c3ccc([N+](=O)[O-])cc3)c(C(C)=O)ccc2[nH]1 | > 100 µM | > 100 µM | 32.9 µM | > 100 µM | > 100 µM | > 100 µM | – | > 100 µM | > 100 µM | > 100 µM
9 | CC1CC/C(=C\c2ccc(Cl)cc2)C2OC(N)=C(C#N)C(c3ccc(Cl)cc3)=C12 (stereo not given) | 25.2 µM | – | – | 37.5 µM | 24.9 µM | 53.4 µM | 27.4 µM | 27.5 µM | 29.9 µM | –
10 | COc1ccc(-c2c(C#N)c(S)n(NS(=O)(=O)c3ccc(C)cc3)c(=O)c2C#N)cc1 | 44.6 µM | – | > 100 µM | 60.7 µM | – | > 100 µM | 74.8 µM | – | 41.3 µM | > 100 µM
11 | Nc1ccccc1CC(O)C(=O)O (stereo not given) | > 100 µM | > 100 µM | > 100 µM | > 100 µM | – | > 100 µM | > 100 µM | > 100 µM | > 100 µM | > 100 µM
12 | N#Cc1c(-c2ccc(Cl)cc2)c2c(n(C3OC(CO)C(O)C(O)C3O)c1=S)CCC2 (stereo not given) | 63.8 µM | > 100 µM | 76.3 µM | > 100 µM | > 100 µM | 87.2 µM | – | 74.3 µM | > 100 µM | 42.1 µM
